Assay results as given in PubChem BioAssay (NCI).
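Interpolation was linear, between the two tested concentrations surrounding the appropriate level; five concentrations were tested over 48 hours in 96-well plates. Here, GI50 denotes the concentration required for 50% inhibition of growth. TGI: total growth inhibition.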

Experiments:
Assay in all cases: NCI tumour cell line growth inhibition, 48 h
[1] = test system: SN12C renal
[2] = test system: ACHN renal
[3] = test system: UACC-257 melanoma
[4] = test system: HOP-92 NSCLC
[5] = test system: U251 CNS
[6] = test system: 786-0 renal
[7] = test system: LOX IMVI melanoma
[8] = test system: IGROV1 ovarian
[9] = test system: SF-295 CNS
[10] = test system: NCI/ADR-RES ovarian
[11] = test system: HL-60(TB) leukemia
[12] = test system: MDA-MB-231 breast
[13] = test system: SR leukemia
[14] = test system: RPMI-8226 leukemia
[15] = test system: HS 578T breast
[16] = test system: DU-145 prostate
[17] = test system: COLO 205 colon
[18] = test system: UACC-62 melanoma
[19] = test system: SW-620 colon
[20] = test system: MCF7 breast
[21] = test system: SK-MEL-2 melanoma
[22] = test system: SK-OV-3 ovarian
[23] = test system: HT29 colon
[24] = test system: HCC-2998 colon

C=C1C(=O)O[C@H]2[C@H]1CC/C(COC(=O)CCCC(=O)OC/C1=C/CC[C@@]3(C)O[C@H]3[C@H]3OC(=O)C(=C)[C@@H]3CC1)=C\CC[C@@]1(C)O[C@@H]21
TGI [1]: 6.92 µM | GI50 [2]: 0.764 µM | TGI [2]: 2.03 µM | GI50 [3]: 2 µM | TGI [3]: 4.97 µM | GI50 [4]: 1.87 µM | TGI [4]: 3.65 µM | GI50 [5]: 2.92 µM | TGI [5]: 10.3 µM | GI50 [6]: 1.35 µM | TGI [6]: 2.79 µM | GI50 [7]: 1.04 µM | TGI [7]: 2.31 µM | GI50 [8]: 1.66 µM | TGI [8]: 4.54 µM | GI50 [9]: 4.71 µM | TGI [9]: > 100 µM | GI50 [10]: 4.63 µM | TGI [10]: > 100 µM | GI50 [11]: 0.274 µM | TGI [11]: 1.39 µM | GI50 [12]: 1.39 µM | TGI [12]: 2.9 µM | GI50 [13]: 0.501 µM | TGI [13]: 3.45 µM | GI50 [14]: 0.362 µM | TGI [14]: 1.5 µM | GI50 [15]: 3.42 µM | TGI [15]: > 100 µM | GI50 [16]: 1.45 µM | TGI [16]: 2.77 µM | GI50 [17]: 0.592 µM | TGI [17]: 2.15 µM | GI50 [18]: 1.54 µM | TGI [18]: 4.53 µM | GI50 [19]: 0.608 µM | TGI [19]: 2.04 µM | GI50 [20]: 0.5 µM | TGI [20]: 2.43 µM | GI50 [21]: 2.18 µM | TGI [21]: 6.5 µM | GI50 [22]: 9.89 µM | TGI [22]: > 100 µM | GI50 [23]: 0.752 µM | TGI [23]: 2.16 µM | GI50 [24]: 2.07 µM | TGI [24]: 4.22 µM
